Molecules are shown by their SMILES. pIC50: −log10 of the molar value. *1 amine or outer side, *2 acyl side, *3 side chain or, on linkers, in order; H or OH if unused. Where a SMILES comes first, the peptide text is derived from it. Side-chain parts run from the residue outwards. [ ]: non-standard residue; d: D form. The star is where a group is joined. Benzoyl(4-(4-EtNHCO-PhO)) = CCNC(=O)c1ccc(Oc2ccc(C(=O)*)cc2)cc1; Benzoyl(4-O-C6H4-4-CONHMe) = CNC(=O)c1ccc(Oc2ccc(C(=O)*)cc2)cc1; Benzenesulfonyl(4-OPh) = O=S(=O)(c1ccc(Oc2ccccc2)cc1)*; X4 = NC(=O)CCCCNC(=O)c1ccc(Oc2ccc(C(=O)*)cc2)cc1; X8 = CCCOc1ccc(C(=O)Nc2ccc(S(=O)(=O)*)cc2)cc1; X17 = CC(=O)Nc1ccc(-c2ccc(S(=O)(=O)*)cc2)cc1; Benzoyl(4-OPh) = O=C(c1ccc(Oc2ccccc2)cc1)*; d(γGlu) = O=C(O)[C@@H](CCC(=O)[*:2])N[*:1]; d(βAsp) = O=C(O)[C@@H](CC(=O)[*:2])N[*:1]; C16 diacid = O=C(O)CCCCCCCCCCCCCCC(=O)*; NMeGABA = CN(CCCC(=O)[*:2])[*:1]; NMeI = CC[C@H](C)[C@H](NC)C(=O)O; NMeE = CN[C@@H](CCC(=O)O)C(=O)O; NMeD = CN[C@@H](CC(=O)O)C(=O)O; NMeN = CN[C@@H](CC(N)=O)C(=O)O; NMeK = CN[C@@H](CCCCN)C(=O)O; β3hP = O=C(O)C[C@@H]1CCCN1; NMeA = CN[C@@H](C)C(=O)O; Aze = O=C(O)[C@@H]1CCN1; Dab = NCC[C@H](N)C(=O)O; AEEA = NCCOCCOCC(=O)O; Aib = CC(C)(N)C(=O)O; Ahx = NCCCCCC(=O)O; Ava = NCCCCC(=O)O; GABA = NCCCC(=O)O

The target in the first test is T1, MMP2 (Homo sapiens, UniProt P08253).
T1 sequence (P08253 110-660): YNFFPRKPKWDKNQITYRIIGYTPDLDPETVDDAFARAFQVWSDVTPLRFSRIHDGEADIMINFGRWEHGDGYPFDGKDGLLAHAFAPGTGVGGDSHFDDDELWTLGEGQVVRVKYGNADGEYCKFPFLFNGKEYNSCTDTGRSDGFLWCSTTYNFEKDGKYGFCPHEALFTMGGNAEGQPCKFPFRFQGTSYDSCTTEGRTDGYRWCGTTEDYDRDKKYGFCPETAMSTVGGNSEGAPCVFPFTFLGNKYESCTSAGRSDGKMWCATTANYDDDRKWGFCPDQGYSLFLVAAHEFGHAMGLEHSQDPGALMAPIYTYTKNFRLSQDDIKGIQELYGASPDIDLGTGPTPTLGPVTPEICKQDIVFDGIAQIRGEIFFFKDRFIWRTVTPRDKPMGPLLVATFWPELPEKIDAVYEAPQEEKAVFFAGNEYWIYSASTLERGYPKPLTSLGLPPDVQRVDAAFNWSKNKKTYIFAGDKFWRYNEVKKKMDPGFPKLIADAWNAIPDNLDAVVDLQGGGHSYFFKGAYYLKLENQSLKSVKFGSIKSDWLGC
The test can be described thus: Inhibitory effects on human MMP2 (Method 1), enzyme assay with MOCAc-Pro-Leu-Gly-Leu-A2pr(Dnp)-Ala-Arg-NH2 substrate, 96-well. In kind it is biochemical. To be noted: Test Example No. 1-1 (Method 1, 96-well microplate); read-out: Human MMP2, IC50. The method, then: In a reaction solution [50 mmol/L Tris-HCl (pH 7.5), 150 mmol/L NaCl, 10 mmol/L CaCl2, 0.05% Brij L23], 100 μg/mL human recombinant MMP2 enzyme and 1 mmol/L 4-Aminophenylmercuric acetate were mixed together, and reacted at 37° C. for 60 minutes. The human MMP2 activated through the reaction was poured into a 96-well microplate to reach a final concentration of 0.7 or 7 ng/mL.
In the case of `CC[C@H](C)[C@@H](C(=O)N1CCC[C@H]1CC(N)=O)N(C)C(=O)[C@H](CC(C)C)NC(=O)[C@H](CCN)NC(=O)[C@H](CC(=O)O)NC(=O)[C@H](CCCCN)NC(=O)CCCCCNC(=O)c1ccc(Oc2ccc(C(=O)NC)cc2)cc1` [Compound 187] ({Benzoyl(4-O-C6H4-4-CONHMe)-Ahx}-KD[Dab]L[NMeI][β3hP]-NH2; N-terminus assumed), the pIC50 (usually the negative decadic logarithm of the IC50, by convention in mol/L) was 8.55.
With `CC[C@H](C)[C@@H](C(=O)N1CCC[C@H]1CC(N)=O)N(C)C(=O)[C@H](CC(C)C)NC(=O)[C@H](CCN)NC(=O)[C@H](CC(=O)O)NC(=O)[C@H](CCC(=O)O)NC(=O)CCCCNC(=O)c1ccc(Oc2ccc(C(=O)NCCCCC(N)=O)cc2)cc1` [Compound 201] ({X4-Ava}-ED[Dab]L[NMeI][β3hP]-NH2; N-terminus assumed), the pIC50 was 8.85.
Turning to `CC[C@H](C)[C@@H](C(=O)N1CCC[C@H]1CC(N)=O)N(C)C(=O)[C@H](CC(C)C)NC(=O)[C@H](CCN)NC(=O)[C@H](CC(=O)O)NC(=O)[C@H](CCCNC(=N)N)NC(=O)CCCCNC(=O)c1ccc(Oc2ccc(C(=O)NC)cc2)cc1` [Compound 189] ({Benzoyl(4-O-C6H4-4-CONHMe)-Ava}-RD[Dab]L[NMeI][β3hP]-NH2; N-terminus assumed), the pIC50 is 9.07.
With `CC[C@H](C)[C@@H](C(=O)N1CCC[C@H]1C(N)=O)N(C)C(=O)[C@H](CC(C)C)NC(=O)[C@H](C)NC(=O)[C@H](CC(=O)O)NC(=O)[C@H](CCCCN)N(C)C(=O)CCCNC(=O)c1ccc(Oc2ccccc2)cc1` [Compound 127] ({Benzoyl(4-OPh)-GABA}-[NMeK]DAL[NMeI]P-NH2; N-terminus assumed), the pIC50 is 9.62.
Take `CC(C)C[C@H](NC(=O)[C@H](CCN)NC(=O)[C@H](CC(=O)O)NC(=O)[C@H](CCC(=O)O)NC(=O)CCCCNC(=O)c1ccc(Oc2ccc(C(=O)NCCCCC(N)=O)cc2)cc1)C(=O)N(C)[C@@H](CCC(=O)O)C(=O)N1CCC[C@H]1CC(N)=O` [Compound 199] ({X4-Ava}-ED[Dab]L[NMeE][β3hP]-NH2; N-terminus assumed): the pIC50 was 8.85.
Regarding `CC[C@H](C)[C@@H](C(=O)N1CCC[C@H]1C(N)=O)N(C)C(=O)[C@H](CC(C)C)NC(=O)[C@H](C)NC(=O)[C@H](CC(=O)O)NC(=O)[C@@H]1CCCN1C(=O)CCCNC(=O)c1ccc(Oc2ccccc2)cc1` [Compound 117] ({Benzoyl(4-OPh)-GABA}-PDAL[NMeI]P-NH2; N-terminus assumed), the pIC50 was 9.26.
As to `CC[C@H](C)[C@@H](C(=O)NC(C)(C)C(N)=O)N(C)C(=O)[C@H](CC(C)C)NC(=O)[C@H](C)NC(=O)[C@H](CC(=O)O)NC(=O)[C@H](C)N(C)C(=O)CCCNC(=O)c1ccc(Oc2ccccc2)cc1` [Compound 96] ({Benzoyl(4-OPh)-GABA}-[NMeA]DAL[NMeI][Aib]-NH2), the pIC50 was 9.13.
Same read-out and setting: then `CC[C@H](C)[C@@H](C(=O)N1CCC[C@H]1CC(N)=O)N(C)C(=O)[C@H](CC(C)C)NC(=O)[C@H](C)NC(=O)C[C@@H](NS(=O)(=O)c1ccc(-c2ccc(NC(C)=O)cc2)cc1)C(=O)O` [Compound 636] ({X17-d(βAsp)}-AL[NMeI][β3hP]-NH2; N-terminus assumed), with 9.03.
Regarding `CCNC(=O)c1ccc(Oc2ccc(C(=O)NCCCCC(=O)N[C@@H](CCCNC(=N)N)C(=O)N[C@@H](CC(=O)O)C(=O)N[C@@H](CCN)C(=O)N[C@@H](CC(C)C)C(=O)N(C)[C@H](C(=O)N3CCC[C@H]3CC(N)=O)[C@@H](C)CC)cc2)cc1` [Compound 197] ({Benzoyl(4-(4-EtNHCO-PhO))-Ava}-RD[Dab]L[NMeI][β3hP]-NH2; N-terminus assumed), the pIC50 was 8.59.
Still for that read-out and setting: with `CC[C@H](C)[C@@H](C(=O)N1CCC[C@H]1CC(N)=O)N(C)C(=O)[C@H](CC(C)C)NC(=O)[C@H](CCN)NC(=O)[C@H](CC(=O)O)NC(=O)[C@@H](NC(=O)CCCNC(=O)c1ccc(Oc2ccccc2)cc1)C(C)C` [Compound 146] ({Benzoyl(4-OPh)-GABA}-VD[Dab]L[NMeI][β3hP]-NH2; N-terminus assumed) the figure was 8.77; with `CC[C@H](C)[C@@H](C(=O)N1CCC[C@H]1CC(N)=O)N(C)C(=O)[C@H](CC(C)C)NC(=O)[C@H](CCN)NC(=O)[C@H](CC(=O)O)NC(=O)[C@H](CCCCN)NC(=O)CCCCNC(=O)c1ccc(Oc2ccc(C(=O)NC)cc2)cc1` [Compound 185] ({Benzoyl(4-O-C6H4-4-CONHMe)-Ava}-KD[Dab]L[NMeI][β3hP]-NH2; N-terminus assumed), 9.00; with `CC[C@H](C)[C@@H](C(=O)N1CCC[C@H]1CC(N)=O)N(C)C(=O)[C@H](CC(C)C)NC(=O)[C@H](CCN)NC(=O)[C@H](CC(=O)O)NC(=O)[C@@H]1CCN1C(=O)CCCNC(=O)c1ccc(Oc2ccccc2)cc1` [Compound 133] ({Benzoyl(4-OPh)-GABA}-[Aze]D[Dab]L[NMeI][β3hP]-NH2; N-terminus assumed), 9.06.
Still for that read-out and setting: with `CCCOc1ccc(C(=O)Nc2ccc(S(=O)(=O)N[C@H](CCC(=O)N[C@@H](CCN)C(=O)N[C@@H](CC(C)C)C(=O)N(C)[C@H](C(=O)N3CCC[C@H]3CC(N)=O)[C@@H](C)CC)C(=O)O)cc2)cc1` [Compound 696] ({X8-d(γGlu)}-[Dab]L[NMeI][β3hP]-NH2; N-terminus assumed) the figure was 9.66; with `CC(C)C[C@H](NC(=O)[C@H](CCN)NC(=O)[C@H](CC(=O)O)NC(=O)[C@H](CCC(=O)O)NC(=O)CCCNC(=O)c1ccc(Oc2ccccc2)cc1)C(=O)N(C)[C@@H](CCC(=O)O)C(=O)N1CCC[C@H]1CC(N)=O` [Compound 144] ({Benzoyl(4-OPh)-GABA}-ED[Dab]L[NMeE][β3hP]-NH2; N-terminus assumed), 9.59; with `CNC(=O)c1ccc(Oc2ccc(C(=O)NCCCCC(=O)N[C@@H](CCCNC(=N)N)C(=O)N[C@@H](CC(=O)O)C(=O)N[C@@H](CCN)C(=O)N[C@@H](CC(C)C)C(=O)N(C)[C@@H](CCC(=O)O)C(=O)N3CCC[C@H]3CC(N)=O)cc2)cc1` [Compound 188] ({Benzoyl(4-O-C6H4-4-CONHMe)-Ava}-RD[Dab]L[NMeE][β3hP]-NH2; N-terminus assumed), 9.09.
As to `CC[C@H](C)[C@@H](C(=O)N1CCC[C@H]1C(N)=O)N(C)C(=O)[C@H](CC(C)C)NC(=O)[C@H](C)NC(=O)[C@H](CC(=O)O)NC(=O)[C@H](CC(N)=O)N(C)C(=O)CCCN(C)C(=O)c1ccc(Oc2ccccc2)cc1` [Compound 103] ({Benzoyl(4-OPh)}-[NMeGABA][NMeN]DAL[NMeI]P-NH2; N-terminus assumed), the pIC50 is 9.17.
The same measure, in the same setting: with `CC[C@H](C)[C@@H](C(=O)N1CCC[C@H]1CC(N)=O)N(C)C(=O)[C@H](CC(C)C)NC(=O)[C@H](CCN)NC(=O)[C@H](CC(=O)O)NC(=O)[C@H](CCC(=O)O)NC(=O)CCCNC(=O)c1ccc(Oc2ccccc2)cc1` [Compound 147] ({Benzoyl(4-OPh)-GABA}-ED[Dab]L[NMeI][β3hP]-NH2; N-terminus assumed) the figure was 9.85; with `CC[C@H](C)[C@@H](C(=O)N1CCC[C@H]1C(N)=O)N(C)C(=O)[C@H](CC(C)C)NC(=O)[C@H](C)NC(=O)[C@H](CC(=O)O)NC(=O)[C@H](CC(=O)O)N(C)C(=O)CCCNC(=O)c1ccc(Oc2ccccc2)cc1` [Compound 125] ({Benzoyl(4-OPh)-GABA}-[NMeD]DAL[NMeI]P-NH2), 9.33.
On to `CC[C@H](C)[C@@H](C(=O)N1CCC[C@H]1C(N)=O)N(C)C(=O)[C@H](CC(C)C)NC(=O)[C@H](CCN)NC(=O)[C@H](CC(=O)O)NC(=O)[C@H](CC(N)=O)N(C)C(=O)CCCNC(=O)c1ccc(Oc2ccccc2)cc1` [Compound 111] ({Benzoyl(4-OPh)-GABA}-[NMeN]D[Dab]L[NMeI]P-NH2; N-terminus assumed), for which the pIC50 was 9.02.
With `CCNC(=O)c1ccc(Oc2ccc(C(=O)NCCCCC(=O)N[C@@H](CCCNC(=N)N)C(=O)N[C@@H](CC(=O)O)C(=O)N[C@@H](CCN)C(=O)N[C@@H](CC(C)C)C(=O)N(C)[C@@H](CCC(=O)O)C(=O)N3CCC[C@H]3CC(N)=O)cc2)cc1` [Compound 196] ({Benzoyl(4-(4-EtNHCO-PhO))-Ava}-RD[Dab]L[NMeE][β3hP]-NH2; N-terminus assumed), the pIC50 was 8.77.

Staying with this test, now noted: Test Example No. 1-1 (Method 1, 96-well); read-out: Human MMP2, IC50.
On to `CC[C@H](C)[C@@H](C(=O)N1CCC[C@H]1CC(N)=O)N(C)C(=O)[C@H](CC(C)C)NC(=O)[C@H](C)NC(=O)[C@H](CC(=O)O)NC(=O)[C@H](CCCCNC(=O)COCCOCCNC(=O)COCCOCCNC(=O)CC[C@@H](NC(=O)CCCCCCCCCCCCCCC(=O)O)C(=O)O)NC(=O)CCCNS(=O)(=O)c1ccc(Oc2ccccc2)cc1` [Compound 903, (2S,5S,32R)-2-{[(2S)-1-({(2S)-1-[{(2S,3S)-1-[(2S)-2-(2-amino-2-oxoethyl)pyrrolidin-1-yl]-3-methyl-1-oxopentan-2-yl}(methyl)amino]-4-methyl-1-oxopentan-2-yl}amino)-1-oxopropan-2-yl]carbamoyl}-4,11,20,29,34-pentaoxo-5-{4-[(4-phenoxybenzene-1-sulfonyl)amino]butanamido}-13,16,22,25-tetraoxa-3,10,19,28,33-pentaazaoctatetracontane-1,32,48-tricarboxylic acid] ({Benzenesulfonyl(4-OPh)-GABA}-K([AEEA-AEEA-d(γGlu)-C16 diacid])DAL[NMeI][β3hP]-NH2), for which the pIC50 is 9.90.

(Values after patent US20240199692A1 (priority 2019, published 2024).)
